≈ marks a conversion by molar mass, not a printed value. Where two headings read alike, the source gives them in different places.
Experiments:
[1] = test system: Escherichia coli ∆tolC; test: microbe, parasite or virus in culture; assay type: cell-based; details: for MIC / inhibition at 50 µM: Escherichia coli; for inhibition at 50 µM: read-out: Ec∆tolC inh. at 50 µM (%)
[2] = test system: Streptococcus pneumoniae (DSM20566); test: In vitro antibacterial activity (MIC), S. pneumoniae; assay type: cell-based; details: read-out: Sp MIC95
[3] = test system: Plasmodium falciparum NF54; test: P. falciparum in vitro drug sensitivity assay on asexual blood stage parasites ([3H]-hypoxanthine incorporation); assay type: cell-based; details: read-out: PfNF54 IC50
[4] = test system: E. coli K12; test: In vitro antibacterial activity (growth inhibition, OD600), E. coli wild-type; assay type: cell-based; details: Escherichia coli
[5] = test system: Acinetobacter baumannii; test: In vitro antibacterial activity (growth inhibition, OD600), A. baumannii; assay type: cell-based
[6] = test system: Pseudomonas aeruginosa PA14; test: In vitro antibacterial activity (growth inhibition, OD600), P. aeruginosa; assay type: cell-based; details: PA14, 50 μM compound, Table 1 and main text, read-out: PA14 inh. at 50 μM
[7] = test system: Mycobacterium tuberculosis (Mtb) strain H37Rv; test: microbe, parasite or virus in culture; assay type: cell-based; details: 168 h, 7 days, footnote b: not active at maximum solubility, read-out: MtbH37Rv MIC90
[8] = Solubility in 7H9 medium; assay type: physicochemical; details: M. tuberculosis growth medium (7H9)
[9] = test system: Staphylococcus aureus ssp. Aureus; test: In vitro antibacterial activity (MIC), S. aureus; assay type: cell-based; details: read-out: Sa MIC95
[10] = in vitro; details: human, HepG2 CC50, 48 h, MTT
[11] = In vitro cytotoxicity by XTT assay; assay type: cell-based; details: human, human monocyte-derived macrophages (hMdM)
[12] = Streptococcus pneumoniae, DSM20566, Table 1 and main text
[13] = Streptococcus pneumoniae, DSM20566, Table S2, with standard deviation
[14] = Plasmodium falciparum, NF54, Table 1 and main text
[15] = K12, 50 μM compound, Table 1 and main text, read-out: EcK12 inh. at 50 μM
[16] = 50 μM compound, Table 1 and main text, read-out: Ab inh. at 50 μM
[17] = Staphylococcus aureus, Table 1 and main text
[18] = Staphylococcus aureus, Table S2, with standard deviation
[19] = 50 µM, Table S1, with standard deviation, read-out: Ab inh. at 50 µM (%)

Structure (SMILES) | MIC ([1]; read-out: EcΔtolC MIC95) | MIC ([1]; read-out: Ec∆tolC MIC95 (µM)) | MIC [2, 12] | MIC [2, 13] | IC50 [3, 14] | inhibition at 50 µM [4, 15] | inhibition at 50 µM [5, 16] | inhibition at 50 µM [6] | MIC90 [7] | 7h9 media Sol. [8] | MIC [9, 17] | MIC [9, 18] | CC50 [10] | inhibition at 50 µM [1] | further results
NCc1cccc(NC(=O)c2cc(-c3cc(Cl)ccc3O)[nH]n2)c1 [Compound 7A] | 47 µM (≈ 16.1 µg/mL) | 47 ± 1 µM (≈ 16.1 µg/mL) | 43 µM (≈ 14.7 µg/mL) | 43 ± 11 µM (≈ 14.7 µg/mL) | 300 nM | 27% | 15% | 44% | > 64 µM | 64 µM | > 50 µM | > 50 µM | 28400 nM |  | 
O=C(Nc1ccc(N2CCNCC2)cc1)c1cc(-c2cc(Cl)ccc2O)[nH]n1 [Compound 6A] | 22.5 µM (≈ 8.95 µg/mL) | 22.5 µM (≈ 8.95 µg/mL) | 45 µM (≈ 17.9 µg/mL) | 45 µM (≈ 17.9 µg/mL) | 140 nM | 49% | 37% | 63% | > 16 µM | 16 µM | > 50 µM | > 50 µM | 11800 nM |  | 
CC(C)(C)OC(=O)NCc1ccc(NC(=O)c2cc(-c3cc(Cl)ccc3O)[nH]n2)cc1 [Compound 8B] | > 50 µM |  | > 50 µM | > 50 µM | 1700 nM |  |  |  |  | < 8 µM | > 50 µM | > 50 µM | > 50000 nM | < 10% | 
O=C(Nc1cccc(CN2CCNCC2)c1)c1cc(-c2cc(Cl)ccc2O)[nH]n1 [Compound 3A] | 45 µM (≈ 18.5 µg/mL) | 45 ± 1 µM (≈ 18.5 µg/mL) | 40 µM (≈ 16.5 µg/mL) | 40 ± 7 µM (≈ 16.5 µg/mL) | 620 nM | 28% | 21% | 50% | > 64 µM | 64 µM | > 50 µM | > 50 µM | 12000 nM |  | 
O=C(Nc1cccc(C(F)(F)F)c1)c1cc(-c2cc(Cl)ccc2O)[nH]n1 [Compound 1a] | > 50 µM |  | > 50 µM | > 50 µM | 210 nM | < 10% | < 10% | < 10% |  | < 8 µM | > 50 µM | > 50 µM | > 50000 nM | < 10% | EcΔtolC MIC95 ([1]; Table 1 and main text): >50 µM; MIC ([2]; Table 1 and main text): >50 µM; MIC ([9]; Table 1 and main text): >50 µM
O=C(Nc1cccc([N+](=O)[O-])c1)c1cc(-c2cc(Cl)ccc2O)[nH]n1 [Compound 1c] | > 50 µM |  | > 50 µM | > 50 µM | 510 nM |  |  |  | > 32 µM | 32 µM | > 50 µM | > 50 µM |  |  | 
N=C(N)N1CCN(c2ccc(NC(=O)c3cc(-c4cc(Cl)ccc4O)[nH]n3)cc2C(F)(F)F)CC1 [Compound 12G, N-(4-(4-Carbamimidoylpiperazin-1-yl)-3-(trifluoromethyl)phenyl)-5-(5-chloro-2-hydroxyphenyl)-1H-pyrazole-3-carboxamide] | 2.8 µM (≈ 1.42 µg/mL) | 2.8 ± 0.3 µM (≈ 1.42 µg/mL) | 31 µM (≈ 15.7 µg/mL) | 31 ± 6 µM (≈ 15.7 µg/mL) | 200 nM | 51% | 33% | < 10% | 4 µM (≈ 2.03 µg/mL) |  | 2.4 µM (≈ 1.22 µg/mL) | 2.4 ± 0.3 µM (≈ 1.22 µg/mL) | 30000 nM |  | CC90 at 24 h [11]: 32000 nM
CC(C)(C)OC(=O)N1CCN(c2ccc(NC(=O)c3cc(-c4cc(Cl)ccc4O)[nH]n3)cc2C(F)(F)F)CC1 [Compound 12B, tert-Butyl 4-(4-(5-(5-chloro-2-hydroxyphenyl)-1H-pyrazole-3-carboxamido)-2-(trifluoromethyl)phenyl)piperazine-1-carboxylate] | > 50 µM |  | > 50 µM | > 50 µM | 560 nM |  |  |  |  | < 8 µM | > 50 µM | > 50 µM | > 50000 nM | < 10% | inhibition at 50 µM [5, 19]: < 10%
CC(C)(C)OC(=O)N1CCN(c2cc(NC(=O)c3cc(-c4cc(Cl)ccc4O)[nH]n3)cc(C(F)(F)F)c2)CC1 [Compound 11B] | > 50 µM |  | > 50 µM | > 50 µM | 130 nM |  |  |  |  | < 8 µM | > 50 µM | > 50 µM | 4000 nM | 18 ± 4% | inhibition at 50 µM [5, 19]: < 10%
N=C(N)N1CCN(c2cc(NC(=O)c3cc(-c4cc(Cl)ccc4O)[nH]n3)ccc2C(F)(F)F)CC1 [Compound 13G, N-(3-(4-Carbamimidoylpiperazin-1-yl)-4-(trifluoromethyl)phenyl)-5-(5-chloro-2-hydroxyphenyl)-1H-pyrazole-3-carboxamide] | 5 µM (≈ 2.54 µg/mL) | 5 ± 2 µM (≈ 2.54 µg/mL) | 16 µM (≈ 8.13 µg/mL) | 16 ± 6 µM (≈ 8.13 µg/mL) | 500 nM |  | ≥ 45% | 17% | 8 µM (≈ 4.06 µg/mL) |  | 2.5 µM (≈ 1.27 µg/mL) | 2.5 ± 0.3 µM (≈ 1.27 µg/mL) | > 25000 nM |  | inhibition at 50 µM ([4]; K12, read-out: EcK12 inh. at 50 μM, 50 μM compound, Table 1 and main text): ≥ 45%; CC90 at 24 h [11]: > 32000 nM
N=C(N)NCc1cc(NC(=O)c2cc(-c3cc(Cl)ccc3O)[nH]n2)cc(C(F)(F)F)c1 [Compound 9G] | 5 µM (≈ 2.26 µg/mL) | 5 ± 2 µM (≈ 2.26 µg/mL) | > 50 µM | > 50 µM | 78 nM |  | 59% | 50% | 32 µM (≈ 14.5 µg/mL) |  | 8 µM (≈ 3.62 µg/mL) | 8 ± 3 µM (≈ 3.62 µg/mL) | > 50000 nM |  | MIC ([4]; K12, Table S1, printed inside the inhibition column, with standard deviation, unit from Table 1 footnote, read-out: EcK12 MIC95): 46 ± 2 µM (≈ 20.8 µg/mL)
N=C(N)NCc1ccc(NC(=O)c2cc(-c3cc(Cl)ccc3O)[nH]n2)cc1 [Compound 8G, 5-(5-Chloro-2-hydroxyphenyl)-N-(4-(guanidinomethyl)phenyl)-1H-pyrazole-3-carboxamide] | 47.5 µM (≈ 18.3 µg/mL) | 47.5 µM (≈ 18.3 µg/mL) | > 50 µM | > 50 µM | 420 nM | 29% | 19.9% | 41% | > 64 µM |  | 22 µM (≈ 8.47 µg/mL) | 22 ± 1 µM (≈ 8.47 µg/mL) | > 50000 nM |  | 
O=C(Nc1cccc(CNC2=NCCN2)c1)c1cc(-c2cc(Cl)ccc2O)[nH]n1 [Compound 7C] | 13 µM (≈ 5.34 µg/mL) | 13 ± 3 µM (≈ 5.34 µg/mL) | 48.2 µM (≈ 19.8 µg/mL) | 48.2 ± 0.8 µM (≈ 19.8 µg/mL) | 390 nM | 29% | 33% | 41% | 32 µM (≈ 13.1 µg/mL) |  | 22.3 µM (≈ 9.16 µg/mL) | 22.3 ± 0.6 µM (≈ 9.16 µg/mL) | > 50000 nM |  | inhibition at 50 µM ([4]; K12, 50 µM, Table S1, with standard deviation, read-out: EcK12 inh. at 50 µM (%)): 29.4 ± 0.6%
NCc1ccc(NC(=O)c2cc(-c3cc(Cl)ccc3O)[nH]n2)cc1 [Compound 8A] | > 50 µM |  | > 50 µM | > 50 µM | > 2000 nM |  |  |  | > 16 µM | 16 µM | > 50 µM | > 50 µM | 30000 nM | 44 ± 16% | IC50 ([3]; Table 1 and main text): 1800 nM
O=C(Nc1ccc(CNC2=NCCN2)cc1)c1cc(-c2cc(Cl)ccc2O)[nH]n1 [Compound 8C] | 21.5 µM (≈ 8.83 µg/mL) | 21.5 µM (≈ 8.83 µg/mL) | > 50 µM | > 50 µM | 670 nM | < 10% | 12% | 10% | > 64 µM |  | 49 µM (≈ 20.1 µg/mL) | 49 ± 1 µM (≈ 20.1 µg/mL) | > 50000 nM |  | 
O=C(Nc1cccc(N2CCNCC2)c1)c1cc(-c2cc(Cl)ccc2O)[nH]n1 [Compound 5A] | 21 µM (≈ 8.36 µg/mL) | 21 ± 2 µM (≈ 8.36 µg/mL) | 26 µM (≈ 10.3 µg/mL) | 26 ± 1 µM (≈ 10.3 µg/mL) | 130 nM | 83% | 34% | 60% | 64 µM (≈ 25.5 µg/mL) | 64 µM | 37 µM (≈ 14.7 µg/mL) | 37 ± 10 µM (≈ 14.7 µg/mL) | 9000 nM |  | inhibition at 50 µM [5, 19]: 34.3 ± 0.4%
O=C(Nc1ccc(CN2CCNCC2)cc1)c1cc(-c2cc(Cl)ccc2O)[nH]n1 [Compound 4A] | 40 µM (≈ 16.5 µg/mL) | 40 ± 8 µM (≈ 16.5 µg/mL) | 40 µM (≈ 16.5 µg/mL) | 40 ± 7 µM (≈ 16.5 µg/mL) | 270 nM | 34% | 24% | 62% | 64 µM (≈ 26.4 µg/mL) |  | > 50 µM | > 50 µM | 13000 nM |  | inhibition at 50 µM [5, 19]: 24.2 ± 7.7%
O=C(Nc1cccc(CN2CCOCC2)c1)c1cc(-c2cc(Cl)ccc2O)[nH]n1 [Compound 2] | > 50 µM |  | > 50 µM | > 50 µM | 1100 nM |  |  |  | > 16 µM | 16 µM | > 50 µM | > 50 µM | ~50000 nM | 24 ± 12% | 
O=C(Nc1cccc(F)c1)c1cc(-c2cc(Cl)ccc2O)[nH]n1 [Compound 1b] | > 50 µM |  | > 50 µM | > 50 µM | 700 nM |  |  |  |  | < 8 µM | > 50 µM | > 50 µM |  |  | 

— article PMC11938010, “Positive Charge in an Antimalarial Compound Unlocks Broad-Spectrum Antibacterial Activity” (JACS Au, 2025)
